Experimental data taken from ChEMBL document CHEMBL3885881, “DrugMatrix”.

Species: Rattus norvegicus
Assay: DrugMatrix - Regimen: Daily Repeat
Type: toxicity, organism-based, Sprague-Dawley
Set-up: regimen Daily Repeat, gender Male, age 6-8 weeks
Settings: in vivo, po, 0 mg/kg, route oral GAVAGE, dose level Control, […]; for ABSOLUTE BASOPHIL / ABSOLUTE EOSINOPHIL / ABSOLUTE LYMPHOCYTE / ABSOLUTE MONOCYTE / ABSOLUTE SEGMENTED NEUTROPHIL / BASOPHIL / EOSINOPHIL / ERYTHROCYTE COUNT / HEMATOCRIT / HEMOGLOBIN / LEUKOCYTE COUNT / LYMPHOCYTE / MEAN CORPUSCULAR HEMOGLOBIN / MEAN CORPUSCULAR HEMOGLOBIN CONCENTRATION / MEAN CORPUSCULAR VOLUME / MONOCYTE / NEUTROPHIL / NUCLEATED RED BLOOD CELLS / PLATELET COUNT: tissue Blood; for ALANINE AMINOTRANSFERASE / ALBUMIN / ALKALINE PHOSPHATASE / ASPARTATE AMINOTRANSFERASE / BLOOD UREA NITROGEN / CARBON DIOXIDE / CHLORIDE / CHOLESTEROL / CREATINE PHOSPHOKINASE / CREATININE / GLUCOSE / LACTATE DEHYDROGENASE / LIPASE / PHOSPHORUS / POTASSIUM / SODIUM / TOTAL BILIRUBIN / TOTAL PROTEIN / URIC ACID: tissue Plasma

For `CC1=C(/C=C/C(C)=C/C=C/C(C)=C\C(=O)O)C(C)(C)CCC1` [ISOTRETINOIN], the “ABSOLUTE BASOPHIL” value (72 h, time 3 day) was 0 CELLS/uL, the “ABSOLUTE EOSINOPHIL” value (72 h, time 3 day) was 0 CELLS/uL and the “ABSOLUTE LYMPHOCYTE” value (72 h, time 3 day) was 8493 CELLS/uL. For the same molecule, the “ABSOLUTE MONOCYTE” value (72 h, time 3 day) was 127 CELLS/uL, the “ABSOLUTE SEGMENTED NEUTROPHIL” value (72 h, time 3 day) was 896.67 CELLS/uL and the BASOPHIL (72 h, time 3 day) was 0%. The EOSINOPHIL (72 h, time 3 day) was 0%, the “ERYTHROCYTE COUNT” value (72 h, time 3 day) was 5.53 x10E6/uL and the HEMATOCRIT (72 h, time 3 day) was 34.07%. For the same molecule, the HEMOGLOBIN (72 h, time 3 day) was 13.28 G/DL, the “LEUKOCYTE COUNT” value (72 h, time 3 day) was 9.52 x10E3/uL and the LYMPHOCYTE (72 h, time 3 day) was 89.17%. For the same molecule, the “MEAN CORPUSCULAR HEMOGLOBIN” value (72 h, time 3 day) was 24.07 pg, the “MEAN CORPUSCULAR HEMOGLOBIN CONCENTRATION” value (72 h, time 3 day) was 39.03 G/DL and the “MEAN CORPUSCULAR VOLUME” value (72 h, time 3 day) was 61.62 fL. For the same molecule, the MONOCYTE (72 h, time 3 day) was 1.33%, the NEUTROPHIL (72 h, time 3 day) was 9.5% and the “NUCLEATED RED BLOOD CELLS” value (72 h, time 3 day) was 0.17 /100WBC. The “PLATELET COUNT” value (72 h, time 3 day) was 1054.17 x10E3/uL, the “ALANINE AMINOTRANSFERASE” value (72 h, time 3 day) was 77.67 u/L and the ALBUMIN (72 h, time 3 day) was 4.08 G/DL. The “ALKALINE PHOSPHATASE” value (72 h, time 3 day) was 404.5 u/L, the “ASPARTATE AMINOTRANSFERASE” value (72 h, time 3 day) was 83.17 u/L and the “BLOOD UREA NITROGEN” value (72 h, time 3 day) was 14.33 mg/dL. The “CARBON DIOXIDE” value (72 h, time 3 day) was 33.17 mmol/L, the CHLORIDE (72 h, time 3 day) was 101 MEQ/L and the CHOLESTEROL (72 h, time 3 day) was 76.33 mg/dL. The “CREATINE PHOSPHOKINASE” value (72 h, time 3 day) was 184.5 u/L, the CREATININE (72 h, time 3 day) was 0.13 mg/dL and the GLUCOSE (72 h, time 3 day) was 163.67 mg/dL. The “LACTATE DEHYDROGENASE” value (72 h, time 3 day) was 130.33 u/L, the LIPASE (72 h, time 3 day) was 11 u/L and the PHOSPHORUS (72 h, time 3 day) was 9.27 mg/dL. The POTASSIUM (72 h, time 3 day) was 6.26 MEQ/L, the SODIUM (72 h, time 3 day) was 143.57 MEQ/L and the “TOTAL BILIRUBIN” value (72 h, time 3 day) was 0.18 mg/dL. The “TOTAL PROTEIN” value (72 h, time 3 day) was 5.82 G/DL, the “URIC ACID” value (72 h, time 3 day) was 1.38 mg/dL and the “ABSOLUTE BASOPHIL” value (120 h, time 5 day) was 0 CELLS/uL. For the same molecule, the “ABSOLUTE EOSINOPHIL” value (120 h, time 5 day) was 0 CELLS/uL, the “ABSOLUTE LYMPHOCYTE” value (120 h, time 5 day) was 8546.17 CELLS/uL and the “ABSOLUTE MONOCYTE” value (120 h, time 5 day) was 49.5 CELLS/uL. The “ABSOLUTE SEGMENTED NEUTROPHIL” value (120 h, time 5 day) was 554.33 CELLS/uL, the BASOPHIL (120 h, time 5 day) was 0% and the EOSINOPHIL (120 h, time 5 day) was 0%. For the same molecule, the “ERYTHROCYTE COUNT” value (120 h, time 5 day) was 5.36 x10E6/uL, the HEMATOCRIT (120 h, time 5 day) was 33.38% and the HEMOGLOBIN (120 h, time 5 day) was 13.2 G/DL. For the same molecule, the “LEUKOCYTE COUNT” value (120 h, time 5 day) was 9.15 x10E3/uL, the LYMPHOCYTE (120 h, time 5 day) was 93.17% and the “MEAN CORPUSCULAR HEMOGLOBIN” value (120 h, time 5 day) was 24.68 pg. The “MEAN CORPUSCULAR HEMOGLOBIN CONCENTRATION” value (120 h, time 5 day) was 39.58 G/DL, the “MEAN CORPUSCULAR VOLUME” value (120 h, time 5 day) was 62.38 fL and the MONOCYTE (120 h, time 5 day) was 0.5%. For the same molecule, the NEUTROPHIL (120 h, time 5 day) was 6.33%, the “NUCLEATED RED BLOOD CELLS” value (120 h, time 5 day) was 0.17 /100WBC and the “PLATELET COUNT” value (120 h, time 5 day) was 1099.33 x10E3/uL. The “ALANINE AMINOTRANSFERASE” value (120 h, time 5 day) was 62.33 u/L, the ALBUMIN (120 h, time 5 day) was 4.1 G/DL and the “ALKALINE PHOSPHATASE” value (120 h, time 5 day) was 419 u/L. For the same molecule, the “ASPARTATE AMINOTRANSFERASE” value (120 h, time 5 day) was 83.17 u/L, the “BLOOD UREA NITROGEN” value (120 h, time 5 day) was 15.5 mg/dL and the “CARBON DIOXIDE” value (120 h, time 5 day) was 33.17 mmol/L. For the same molecule, the CHLORIDE (120 h, time 5 day) was 98 MEQ/L, the CHOLESTEROL (120 h, time 5 day) was 58.33 mg/dL and the “CREATINE PHOSPHOKINASE” value (120 h, time 5 day) was 393.17 u/L. For the same molecule, the CREATININE (120 h, time 5 day) was 0.18 mg/dL, the GLUCOSE (120 h, time 5 day) was 163 mg/dL and the “LACTATE DEHYDROGENASE” value (120 h, time 5 day) was 111.5 u/L. For the same molecule, the LIPASE (120 h, time 5 day) was 9.5 u/L, the PHOSPHORUS (120 h, time 5 day) was 10.02 mg/dL and the POTASSIUM (120 h, time 5 day) was 5.73 MEQ/L. The SODIUM (120 h, time 5 day) was 143.65 MEQ/L, the “TOTAL BILIRUBIN” value (120 h, time 5 day) was 0.2 mg/dL and the “TOTAL PROTEIN” value (120 h, time 5 day) was 5.85 G/DL. For the same molecule, the “URIC ACID” value (120 h, time 5 day) was 0.78 mg/dL.
